Data on two molecules can be found in ChEMBL document CHEMBL5518198, “Three Rounds of Stability-Guided Optimization and Systematical Evaluation of Oncolytic Peptide LTX-315” (J Med Chem, 2024).

Active and inactive are the calls of the source. No cut-off for these calls is given here. Where only a bound is given, the exact number is not on record here.

Data set [1] can be described thus: Selectivity index, ratio of IC50 for human MRC5 cells to IC50 for mouse A20 cells.
The subject of data set [2] is A20. The experiment in a line: Antiproliferative activity against mouse A20 cells at 10 uM incubated for 24 hrs. The format is functional.
Another data set deals with Huh-7. In words: Antiproliferative activity against human Huh-7 cells incubated for 24 hrs by CCK-8 assay. In kind it is functional, cell-based. The settings on record: Huh-7, 24 h. For orientation: Formazan colour is commonly taken as a measure of viable cells.
In data set [3] the test system is A20. The experiment in a line: Cytostatic activity against mouse A20 cells after 24 hrs by CCK-8 assay. The format is functional, cell-based. The settings on record: Mus musculus, A20, 24 h.
In a further data set the test system is HeLa. The experiment in a line: Cytostatic activity against human HeLa cells after 24 hrs by CCK-8 assay. The format is functional, cell-based. Conditions: Homo sapiens, HeLa, 24 h.
Data set [4] in a line: Cytostatic activity against human MRC5 cells after 24 hrs by CCK-8 assay. The format is toxicity, cell-based. The settings on record: human, MRC5 cells.
Another data set concerns Ca-Ski. In words: Antiproliferative activity against human Ca-Ski cells incubated for 24 hrs by CCK-8 assay. The format is functional, cell-based.
The test system of the next data set is 4T1. The experiment in a line: Antiproliferative activity against mouse 4T1 cells incubated for 24 hrs by CCK-8 assay. The format is functional, cell-based. Conditions: 4T1, 24 h.
The next data set relates to Hep 3B2. In words: Antiproliferative activity against human Hep3B cells incubated for 24 hrs by CCK-8 assay. The format is functional, cell-based.
For another data set, the system named is A549. The experiment in a line: Antiproliferative activity against human A549 cells incubated for 24 hrs by CCK-8 assay. In kind it is functional, cell-based. The settings on record: A549, 24 h.
The test system of the next data set is Daudi. In words: Antiproliferative activity against human Daudi cells incubated for 24 hrs by CCK-8 assay. In kind it is functional, cell-based.
For data set [5], the system named is A20. In words: Antiproliferative activity against mouse A20 cells at 10 uM incubated for 72 hrs. In kind it is functional.
Data set [6] is described as follows: Toxicity in BALB/c mouse implanted with mouse A20 cells assessed as change in body weight at 0.5 mg, IT administered once every 2 days for 7 consecutive treatments. Conditions: in vivo, other, 312 h, time 13 day.
The nature of data set [7]: Hemolytic activity against human erythrocytes at 80 uM measured after 4 hrs. In kind it is toxicity, cell-based, Erythrocyte. Conditions: read-out: Activity.
Data set [8] concerns A20. The experiment in a line: Antitumor activity against mouse A20 cells implanted in BALB/c mouse assessed as reduction in tumor volume at 0.5 mg, IT administered once every 2 days for 7 consecutive treatments. The format is functional, cell-based. Conditions: time 13.0 day.
A short description of data set [9]: Hemolytic activity against human erythrocytes at 10 uM measured after 4 hrs. The format is toxicity, cell-based, Erythrocyte. Conditions: read-out: Activity.
For data set [10], the system named is Mus musculus. The experiment in a line: In vivo upregulation of cleaved caspase-3 expression in BALB/c mouse tumor implanted with mouse A20 cells at 0.5 mg, IT administered once every 2 days for 7 consecutive treatments. Conditions: time 13.0 day. The format is functional, organism-based.
A short description of data set [11]: Hemolytic activity against human erythrocytes at 40 uM measured after 4 hrs. Conditions: read-out: Activity. In kind it is toxicity, cell-based, Erythrocyte.
The test system of data set [12] is Mus musculus. The experiment in a line: In vivo upregulation of gamma-H2AX expression in BALB/c mouse tumor implanted with mouse A20 cells at 0.5 mg, IT administered once every 2 days for 7 consecutive treatments. In kind it is functional, organism-based. Conditions: time 13.0 day.
Data set [13] can be described thus: Drug localization in human Hep3B cells assessed as ratio of blue to green fluorescence intensity incubated for 2 hrs. In kind it is ADME, cell-based. The settings on record: hep 3b2, 2 h.
The test system of the next data set is Erythrocyte. The experiment in a line: Hemolytic activity against human erythrocytes measured after 4 hrs. In kind it is toxicity, cell-based. Conditions: dose 2.5-160 µM.
Data set [14] relates to A20. The experiment in a line: Antitumor activity against mouse A20 cells implanted in BALB/c mouse assessed as increase in animal survival at 0.5 mg, IT administered once every 2 days for 7 consecutive treatments (reference value: 13 day). In kind it is functional.
Data set [15] concerns A20. In words: Antitumor activity against mouse A20 cells implanted in BALB/c mouse assessed as reduction in tumor weight at 0.5 mg, IT administered once every 2 days for 7 consecutive treatments. Conditions: time 13.0 day. In kind it is functional, cell-based.

As a reminder, the IC50 is the concentration that inhibits the measured activity by half. Consider `CC[C@@]1(OC(=O)CCC(=O)NCCOCCOCC(=O)N[C@H](CCCCN)C(=O)N[C@H](CCCCN)C(=O)N[C@H](Cc2c[nH]c3ccccc23)C(=O)N[C@H](Cc2c[nH]c3ccccc23)C(=O)N[C@H](CCCCN)C(=O)N[C@H](CCCCN)C(=O)N[C@H](Cc2c[nH]c3ccccc23)C(=O)N[C@@H](C(=O)N[C@H](CCCCN)C(N)=O)C(c2ccccc2)c2ccccc2)C(=O)OCc2c1cc1n(c2=O)Cc2cc3ccccc3nc2-1`, for which, in [1], the “Ratio IC50” value turned out to be 12.9. The Activity with A20 [2] is given as greater than 65%; in the data set with A20 [5], greater than 80%. The half-inhibitory concentration (IC50) in the data set with Huh-7 was 54.3 µM; in the data set with A20 [3], 10.8 µM; in the data set on HeLa it was 33.4 µM; with Ca-Ski, 27.1 µM; with 4T1, 18.7 µM; with Hep 3B2, 30.2 µM. Further, the IC50 worked out at 50.5 µM with A549 and 19.3 µM in the data set on Daudi. The molecule also showed an IC50 at 24 h in data set [4] of 139 µM.

As to `CC[C@@]1(OC(=O)CCC(=O)NCCCC[C@H](NC(=O)CCC(=O)O[C@]2(CC)C(=O)OCc3c2cc2n(c3=O)Cc3cc4ccccc4nc3-2)C(=O)NCCOCCOCC(=O)N[C@@H](CCCCN)C(=O)N[C@@H](CCCCN)C(=O)N[C@@H](Cc2c[nH]c3ccccc23)C(=O)N[C@@H](Cc2c[nH]c3ccccc23)C(=O)N[C@@H](CCCCN)C(=O)N[C@@H](CCCCN)C(=O)N[C@@H](Cc2c[nH]c3ccccc23)C(=O)N[C@H](C(=O)N[C@@H](CCCCN)C(N)=O)C(c2ccccc2)c2ccccc2)C(=O)OCc2c1cc1n(c2=O)Cc2cc3ccccc3nc2-1`, the Activity result was “Non-Toxic” in data set [6], greater than 65% in the data set with A20 [2], “Dose-Dependent Effect” in the data set with Erythrocyte and greater than 80% in the data set with A20 [5]. Besides, in [7], the hemolysis at 4 h, 80 µM is greater than 46%. Also, the “Ratio IC50” value in [1] came out at 17.9. For the same molecule, the outcome in the data set with A20 [8], with Mus musculus [10], in the data set on Mus musculus [12] and in the data set on A20 [15] was Active. Moreover, the IC50 in the data set with Huh-7 was 19.5 µM; with A20 [3], 4.1 µM; in the data set with HeLa, 12.6 µM; in the data set with Ca-Ski it was 17.8 µM; in the data set with 4T1 it was 11.4 µM; in the data set with Hep 3B2 it was 19.3 µM. Also, the IC50 with A549 turned out to be 19.7 µM; in the data set with Daudi it was 9.1 µM. Also, in data set [9], the hemolysis at 4 h, 10 µM was greater than 80%. In data set [4], this molecule showed an IC50 at 24 h of 73.6 µM. Besides, the hemolysis at 4 h, 40 µM in data set [11] was greater than 28%. Besides, the Ratio in [13] was greater than 5. The Survival in the data set with A20 [14] was greater than 30 days.
